Test results reported in patent US8227207B2, “Bioactive peptides derived from the proteins of egg white by means of enzymatic hydrolysis” (Consejo Superior de Investigaciones Cientifcas, priority 2004, dated 2012).
“Also recorded” adds a separate entry of the source. Residues, ends and D or L forms follow the SMILES beside them.

Columns and labels:
[1] = test system: spontaneously hypertensive rats (SHR); assay: Antihypertensive activity: systolic arterial pressure (tail cuff) in spontaneously hypertensive rats; format: in vivo, rat
Description: (§1) The effect is studied of various identified peptides and of some products containing them (for example egg white hydrolysed with pepsin for 3 hours and the fraction of it less than 3000 Da) on the arterial pressure of spontaneously hypertensive rats (SHR) and Wistar-Kyoto rats (WKY) which are the normotense controls for the SHR.
(§2) This study is conducted with SHR (10) and WKY of 17-24 weeks old and weight between 300 and 350 g, coming from Charles River Laboratories España, S. A. The rats are kept in cages of five by five and maintained at a stable temperature of 25° C. with light-dark cycles of 12 hours, ingesting freely available water and food. In order to carry out the measurement of systolic arterial pressure (SAP) “tail cuff” equipment is used (Le5001, Letica) which automatically provides a digital value of the SAP and records and facilitates the cardiac frequency of the animals. Various measurements are made and the average of all of them is obtained in order to achieve a reliable value of the SAP. Before positioning the cuff and transducer in the tail of the rats, the rats are exposed to a temperature of close to 30° C. in order to facilitate dilation of the caudal artery. Also, in order to ensure the reliability of the measurement, the animals are made to get used to the procedure for two weeks prior to conducting each assay in question.
(§3) The administration of the products to be assayed is done by means of an intragastric probe in a time margin of between 9 and 10 o'clock in the morning. The SHR used for the study had SAP values of between 230 and 280 mm Hg. The WKY used for the study at that moment had SAP values of between 160 and 200 mm Hg. Measurements of the SAP were taken from the animals periodically, every 2 hours, up to 8 hours post-administration of the products to be assayed; in addition, a SAP measurement was taken 24 hours after the administration of those products. As negative control (in order to establish the circadian variation of the SAP in probed rats) the measurements of the SAP obtained in rats which had been administered 1 ml of water by means of intragastric probe were used. As positive control, the measurements of the SAP obtained in rats which had been administered 50 mg/kg of Captopril (prototype ACEI drug) by means of intragastric probe were used. This dose of Captopril was administered to each rat in a volume of 1 ml. In order to establish the effect of the unhydrolysed egg white on the arterial pressure of the animals, similar assays to those described above were conducted, in which the animals were treated by the same procedure with 200 mg/kg of previously freeze-dried egg white (reference).
The results obtained are grouped and the mean±the standard error of measurement (SEM) is obtained for a minimum of 9 homogenous assays. The data of the treated animals are always compared with the data deemed to be a negative control. In order to compare them and obtain the statistical significance, Student's t-test for unpaired data is used and the difference for values of p<0.05 is considered significant.

[2] = Antioxidant activity, ABTS radical cation decolorization assay (TEAC)
Description: In order to measure the antioxidant activity, the method developed by R. Re, N. Pellegrini, A. Proteggente, A. Pannala, M. Yang and C. Rice-Evans (Antioxidant activity applying an improved ABTS radical cation decolorization assay, Free Radical Biological Medicine, 1999, 26: 1231-1237) is used. The method is based on the disappearance of the radical ABTS^•+ (2,2-azinobis(3-ethylbenzothiazoline-6-sulphonic) acid) owing to the reducing action of different samples with antioxidant activity. […] The antioxidant activity is detected by the fall in the 734 nm absorbency time.
In order to generate the radical […], the compound ABTS (Sigma), dissolved in water at a concentration of 7 mM, is brought into contact with 2.45 mM potassium persulphate in a ratio of 1:2 for 24 hours in the absence of light. After 24 hours, the absorbency at 734 nm is adjusted to a value of 0.70 ±0.02 with 5 mM of phosphate buffer salt (PBS), 138 mM of NaCl, pH =7.4. In a standard experiment, 1 ml of this solution is added to 10 μl of the sample (1.5 mM) dissolved in 0.02 M sodium phosphate buffer, pH =6.5 The experiment is conducted in triplicate, with each sample being incubated with the radical ABTS^•+ for 10 minutes at 37° C., with readings of the absorbency at 734 nm being taken at 1, 6 and 10 minutes. Used as blank is 0.02 M sodium phosphate buffer, pH =6.5 and at the same time as the incubation of the samples is carried out, the radical […] is incubated without any antioxidant agent (control). The antioxidant activity of each sample is calculated with respect to the absorbency at 734 nm shown by the control. The antioxidant activity of the sample is expressed in relation to the antioxidant activity of TROLOX® (6-hydroxy-2,5,7,8-tetramethylchroman-2-carboxylic acid) (Sigma), analogous to vitamin E, by means of a TEAC value (Trolox equivalent antioxidant capacity) at a certain time.
Different ways of calculating the TEAC value have been developed. We use the method described by F. W. P. C. van Overlveld, G. R. M. M. Haenen, J. Rhemrev, J. P. W. Vermeiden and A. Bast (Tyrosine as important contributor to the antioxidant capacity of seminal plasma, Chemical and Biological Interactions, 2000, 127: 151-161), which is valid for calculating the TEAC value of a pure compound, which provokes a decrease in the absorbency which linearly increases as the concentration is increased. In this case, it would only be necessary to calculate a certain concentration of a compound in order to be able to calculate its TEAC value.
The value 0.2845 represents the decrease in absorbency caused by 1 mM of 6-hydroxy-2,5,7,8-tetramethylchroman-2-carboxylic acid.

Wistar-Kyoto rats (WKY) = assay: Systolic arterial pressure (tail cuff) in normotense Wistar-Kyoto rats; format: in vivo, rat; conditions: highest dose used, intragastric probe
Description: as §1, §2, §3
The results obtained are grouped and the mean±the standard error of measurement (SEM) is obtained for a minimum of 9 homogenous assays. […]

CC[C@H](C)[C@H](NC(=O)[C@@H]1CCCN1C(=O)[C@H](Cc1ccc(O)cc1)NC(=O)[C@H](CCCNC(=N)N)NC(=O)[C@H](CCC(=O)O)NC(=O)[C@H](CCC(=O)O)NC(=O)[C@H](C)NC(=O)[C@@H](N)Cc1ccc(O)cc1)C(=O)N[C@@H](CC(C)C)C(=O)O [SEQ. ID. N^o 6] (H-YAEERYPIL-OH; N-terminus and C-terminus assumed)
time of maximum drop in SAP after administration ([1]; intragastric probe): 6 h
drop in systolic arterial pressure (SAP) / anti-hypertensive activity (in words) ([1]; single administration by intragastric probe): possess anti-hypertensive activity; also recorded: significant dose-dependent drop in the SAP; also recorded: clear and pronounced anti-hypertensive effect; also recorded: display anti-hypertensive activity
antioxidant activity towards free radicals (in words) [2]: possesses antioxidant activity
times more antioxidant activity than 6-hydroxy-2,5,7,8-tetramethylchroman-2-carboxylic acid ([2]; 1 mg versus 1 mg): 1.3 times
TEAC (Trolox equivalent antioxidant capacity) ([2]; 1 minute): 0.8
TEAC (Trolox equivalent antioxidant capacity) ([2]; 6 minutes): 1.2
TEAC (Trolox equivalent antioxidant capacity) ([2]; 10 minutes): 1.3
change in SAP in normotense rats (in words) (Wistar-Kyoto rats (WKY)): not in normotensed Wistar-Kyoto rats; also recorded: none of these compounds modifies the SAP
